PubChem BioAssay AID1963428 (Molecular Pharmacology Branch, DTP, NCI, 2024)
pIC50: −log10 of the molar value.

System: 171881-019-R-J1-PDC complex spheroid growth, % test/control
Assay: Anticancer human tumor 171881-019-R-J1-PDC patient-derived invasive breast carcinoma cell line growth inhibition [Asc]
Details: for pIC50: curve of first compound; for viability, T/C: stronger effect = lower value; active means viability on the fitted dose curve at most 10% of control; inactive means the rest
How it was run: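 Complex spheroids combining tumor cells with HUVEC endothelial cells and human MSCs, at 37 degrees C, 5% CO2; agents tested alone or combined, half-log dilutions from at or near clinical Cmax, or 10 microM if Cmax unknown.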

[1] = second compound 0.1 µM, first compound 0.00949 µM
[2] = second compound 0.1 µM, first compound 0.03 µM
[3] = second compound 0.1 µM, first compound 0.0949 µM
[4] = second compound 0.1 µM, first compound 0.3 µM
[5] = second compound 0.316 µM, first compound 0.00949 µM
[6] = second compound 0.316 µM, first compound 0.03 µM
[7] = second compound 0.316 µM, first compound 0.0949 µM
[8] = second compound 0.316 µM, first compound 0.3 µM
[9] = second compound 1 µM, first compound 0.00949 µM
[10] = second compound 1 µM, first compound 0.03 µM
[11] = second compound 1 µM, first compound 0.0949 µM
[12] = second compound 1 µM, first compound 0.3 µM
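Wherever viability, T/C is given: spheroids exposed to compounds for 7 days.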

CCN1CCN(Cc2ccc(Nc3ncc(F)c(-c4cc(F)c5nc(C)n(C(C)C)c5c4)n3)nc2)CC1 + CCN1C(C(=O)NC23CCC(C(=O)O)(CC2)CC3)C(c2cccc(Cl)c2F)C2(C(=O)Nc3cc(Cl)ccc32)C12CCCCC2
inactive: viability, T/C (second compound 0.03 µM, first compound 0.00316 µM) 97.8% | viability, T/C (second compound 0.03 µM, first compound 0.01 µM) 86.6% | viability, T/C (second compound 0.03 µM, first compound 0.0316 µM) 108% | viability, T/C (second compound 0.03 µM, first compound 0.1 µM) 128% | viability, T/C (second compound 0.03 µM, first compound 0.316 µM) 133% | viability, T/C (second compound 0.03 µM, first compound 1 µM) 133% | viability, T/C (second compound 0.0949 µM, first compound 0.00316 µM) 104% | viability, T/C (second compound 0.0949 µM, first compound 0.01 µM) 96.2% | viability, T/C (second compound 0.0949 µM, first compound 0.0316 µM) 115% | viability, T/C (second compound 0.0949 µM, first compound 0.1 µM) 117% | viability, T/C (second compound 0.0949 µM, first compound 0.316 µM) 144% | viability, T/C (second compound 0.0949 µM, first compound 1 µM) 144% | viability, T/C (second compound 0.3 µM, first compound 0.00316 µM) 109% | viability, T/C (second compound 0.3 µM, first compound 0.01 µM) 115% | viability, T/C (second compound 0.3 µM, first compound 0.0316 µM) 109% | viability, T/C (second compound 0.3 µM, first compound 0.1 µM) 111% | viability, T/C (second compound 0.3 µM, first compound 0.316 µM) 129% | viability, T/C (second compound 0.3 µM, first compound 1 µM) 126% | viability, T/C (second compound 0.949 µM, first compound 0.00316 µM) 114% | viability, T/C (second compound 0.949 µM, first compound 0.01 µM) 119% | viability, T/C (second compound 0.949 µM, first compound 0.0316 µM) 112% | viability, T/C (second compound 0.949 µM, first compound 0.1 µM) 118% | viability, T/C (second compound 0.949 µM, first compound 0.316 µM) 129% | viability, T/C (second compound 0.949 µM, first compound 1 µM) 143% | viability, T/C (second compound 3 µM, first compound 0.00316 µM) 101% | viability, T/C (second compound 3 µM, first compound 0.01 µM) 107% | viability, T/C (second compound 3 µM, first compound 0.0316 µM) 115% | viability, T/C (second compound 3 µM, first compound 0.1 µM) 130% | viability, T/C (second compound 3 µM, first compound 0.316 µM) 146% | viability, T/C (second compound 3 µM, first compound 1 µM) 144%
< 6.00: pIC50 (second compound 0.03 µM) | pIC50 (second compound 0.0949 µM) | pIC50 (second compound 0.3 µM) | pIC50 (second compound 0.949 µM) | pIC50 (second compound 3 µM)

Cc1nc(N2CCC3(CC2)COC(C)C3N)c(CO)nc1Sc1ccnc(N)c1Cl (stereo not given) + CNC(C)C(=O)NC1CN(S(=O)(=O)c2cccc(S(=O)(=O)N3CCC4CCC(C(=O)NC(c5ccccc5)c5ccccc5)N4C(=O)C(NC(=O)C(C)NC)C3)c2)CCC2CCC(C(=O)NC(c3ccccc3)c3ccccc3)N2C1=O
< 5.52: pIC50 (second compound 0.01 µM) | pIC50 (second compound 0.0316 µM) | pIC50 (second compound 0.1 µM) | pIC50 (second compound 0.316 µM) | pIC50 (second compound 1 µM)
inactive: viability, T/C (second compound 0.01 µM, first compound 0.00949 µM) 119% | viability, T/C (second compound 0.01 µM, first compound 0.03 µM) 132% | viability, T/C (second compound 0.01 µM, first compound 0.0949 µM) 192% | viability, T/C (second compound 0.01 µM, first compound 0.3 µM) 239% | viability, T/C (second compound 0.01 µM, first compound 0.949 µM) 205% | viability, T/C (second compound 0.01 µM, first compound 3 µM) 165% | viability, T/C (second compound 0.0316 µM, first compound 0.00949 µM) 116% | viability, T/C (second compound 0.0316 µM, first compound 0.03 µM) 163% | viability, T/C (second compound 0.0316 µM, first compound 0.0949 µM) 214% | viability, T/C (second compound 0.0316 µM, first compound 0.3 µM) 279% | viability, T/C (second compound 0.0316 µM, first compound 0.949 µM) 211% | viability, T/C (second compound 0.0316 µM, first compound 3 µM) 164% | viability, T/C [1] 120% | viability, T/C [2] 147% | viability, T/C [3] 196% | viability, T/C [4] 237% | viability, T/C (second compound 0.1 µM, first compound 0.949 µM) 175% | viability, T/C (second compound 0.1 µM, first compound 3 µM) 155% | viability, T/C [5] 111% | viability, T/C [6] 140% | viability, T/C [7] 203% | viability, T/C [8] 229% | viability, T/C (second compound 0.316 µM, first compound 0.949 µM) 181% | viability, T/C (second compound 0.316 µM, first compound 3 µM) 147% | viability, T/C [9] 119% | viability, T/C [10] 148% | viability, T/C [11] 183% | viability, T/C [12] 250% | viability, T/C (second compound 1 µM, first compound 0.949 µM) 171% | viability, T/C (second compound 1 µM, first compound 3 µM) 142%

NC(=O)C(=Cn1cnc(-c2cc(C(F)(F)F)cc(C(F)(F)F)c2)n1)c1cncnc1 + Cc1c(S(C)(=O)=O)c(-c2cc(F)cc(N3CCN(c4ccc(NS(=O)(=O)c5ccc(NC(CCN6CCC(C(=O)OCCCP(=O)(O)O)CC6)CSc6ccccc6)c(S(=O)(=O)C(F)(F)F)c5)cc4)CC3)c2)c(-c2ccc(Cl)cc2)n1C(C)C
7.87: pIC50 (second compound 3.16 µM)
8.03: pIC50 (second compound 10 µM)
inactive: viability, T/C (second compound 0.1 µM, first compound 0.000949 µM) 102% | viability, T/C (second compound 0.1 µM, first compound 0.003 µM) 108% | viability, T/C [1] 116% | viability, T/C [2] 40.1% | viability, T/C (second compound 0.316 µM, first compound 0.000949 µM) 111% | viability, T/C (second compound 0.316 µM, first compound 0.003 µM) 159% | viability, T/C [5] 84.5% | viability, T/C [6] 28.7% | viability, T/C (second compound 1 µM, first compound 0.000949 µM) 144% | viability, T/C (second compound 1 µM, first compound 0.003 µM) 135% | viability, T/C [9] 86.1% | viability, T/C [10] 16.6% | viability, T/C (second compound 3.16 µM, first compound 0.000949 µM) 171% | viability, T/C (second compound 3.16 µM, first compound 0.003 µM) 151% | viability, T/C (second compound 3.16 µM, first compound 0.00949 µM) 65.4% | viability, T/C (second compound 3.16 µM, first compound 0.03 µM) 14.7% | viability, T/C (second compound 10 µM, first compound 0.000949 µM) 183% | viability, T/C (second compound 10 µM, first compound 0.003 µM) 135% | viability, T/C (second compound 10 µM, first compound 0.00949 µM) 47.7% | viability, T/C (second compound 10 µM, first compound 0.03 µM) 13.5%
7.76: pIC50 (second compound 1 µM)
7.73: pIC50 (second compound 0.316 µM)
active: viability, T/C [3] 4.69% | viability, T/C [4] 1.77% | viability, T/C [7] 2.73% | viability, T/C [8] 1.39% | viability, T/C [11] 2.27% | viability, T/C [12] 1.86% | viability, T/C (second compound 3.16 µM, first compound 0.0949 µM) 1.2% | viability, T/C (second compound 3.16 µM, first compound 0.3 µM) 0.46% | viability, T/C (second compound 10 µM, first compound 0.0949 µM) 1.03% | viability, T/C (second compound 10 µM, first compound 0.3 µM) 0.35%
7.60: pIC50 (second compound 0.1 µM)
